Data published in the NIST ThermoML archive (doi:10.1021/je049895b).

Assay: xn = mol fraction of the nth substance listed
Conditions: 101.33 kPa, Liquid; for viscosity: Capillary tube (Ostwald / Ubbelohde) method

C1CCCC1 [cyclopentane] + COC(=O)OC
Conditions | mass density [kg/m3] | speed of sound [m/s] | viscosity [mPa·s]
293.15 K, x2 = 0 | 744.43 | 1232 | 0.438
293.15 K, x2 = 0.0453 | 755.75 | 1219 | 0.429
293.15 K, x2 = 0.0871 | 766.47 | 1209 | 0.419
293.15 K, x2 = 0.1847 | 792.72 | 1192 | 0.417
293.15 K, x2 = 0.2915 | 823.38 | 1180 | 0.421
293.15 K, x2 = 0.3937 | 854.33 | 1174 | 0.432
293.15 K, x2 = 0.4904 | 884.96 | 1172 | 0.449
293.15 K, x2 = 0.5988 | 920.84 | 1174 | 0.472
293.15 K, x2 = 0.6963 | 954.64 | 1180 | 0.497
293.15 K, x2 = 0.8033 | 993.39 | 1190 | 0.531
293.15 K, x2 = 0.9028 | 1031.4 | 1204 | 0.573
293.15 K, x2 = 0.9532 | 1051.09 | 1212 | 0.601
298.15 K, x2 = 0 | 739.47 | 1206 | 0.415
298.15 K, x2 = 0.0453 | 750.69 | 1193 | 0.406
298.15 K, x2 = 0.0871 | 761.31 | 1184 | 0.397
298.15 K, x2 = 0.1847 | 787.29 | 1168 | 0.396
298.15 K, x2 = 0.2915 | 817.76 | 1156 | 0.398
298.15 K, x2 = 0.3937 | 848.47 | 1150 | 0.408
298.15 K, x2 = 0.4904 | 878.98 | 1148 | 0.422
298.15 K, x2 = 0.5988 | 914.7 | 1151 | 0.444
298.15 K, x2 = 0.6963 | 948.41 | 1157 | 0.468
298.15 K, x2 = 0.8033 | 987.01 | 1168 | 0.5
298.15 K, x2 = 0.9028 | 1024.85 | 1182 | 0.538
298.15 K, x2 = 0.9532 | 1044.57 | 1190 | 0.565
303.15 K, x2 = 0 | 734.47 | 1180 | 0.394
303.15 K, x2 = 0.0453 | 745.58 | 1168 | 0.385
303.15 K, x2 = 0.0871 | 756.09 | 1158 | 0.377
303.15 K, x2 = 0.1847 | 781.98 | 1143 | 0.374
303.15 K, x2 = 0.2915 | 812.07 | 1131 | 0.377
303.15 K, x2 = 0.3937 | 842.65 | 1125 | 0.386
303.15 K, x2 = 0.4904 | 872.96 | 1124 | 0.4
303.15 K, x2 = 0.5988 | 908.54 | 1127 | 0.419
303.15 K, x2 = 0.6963 | 942.13 | 1134 | 0.441
303.15 K, x2 = 0.8033 | 980.64 | 1145 | 0.472
303.15 K, x2 = 0.9028 | 1018.17 | 1160 | 0.507
303.15 K, x2 = 0.9532 | 1038.01 | 1168 | 0.528
308.15 K, x2 = 0 | 729.42 | 1154 | 0.374
308.15 K, x2 = 0.0453 | 740.41 | 1142 | 0.366
308.15 K, x2 = 0.0871 | 750.83 | 1133 | 0.358
308.15 K, x2 = 0.1847 | 776.38 | 1118 | 0.355
308.15 K, x2 = 0.2915 | 806.36 | 1107 | 0.357
308.15 K, x2 = 0.3937 | 836.73 | 1102 | 0.366
308.15 K, x2 = 0.4904 | 866.91 | 1101 | 0.379
308.15 K, x2 = 0.5988 | 902.34 | 1105 | 0.397
308.15 K, x2 = 0.6963 | 935.82 | 1111 | 0.418
308.15 K, x2 = 0.8033 | 974.2 | 1123 | 0.446
308.15 K, x2 = 0.9028 | 1011.88 | 1138 | 0.478
308.15 K, x2 = 0.9532 | 1031.41 | 1146 | 0.501
313.15 K, x2 = 0 | 724.32 | 1129 | 0.355
313.15 K, x2 = 0.0453 | 735.2 | 1117 | 0.348
313.15 K, x2 = 0.0871 | 745.51 | 1108 | 0.341
313.15 K, x2 = 0.1847 | 770.82 | 1093 | 0.338
313.15 K, x2 = 0.2915 | 800.54 | 1083 | 0.338
313.15 K, x2 = 0.3937 | 830.73 | 1078 | 0.346
313.15 K, x2 = 0.4904 | 860.7 | 1078 | 0.358
313.15 K, x2 = 0.5988 | 896.1 | 1082 | 0.377
313.15 K, x2 = 0.6963 | 929.45 | 1089 | 0.397
313.15 K, x2 = 0.8033 | 967.7 | 1101 | 0.424
313.15 K, x2 = 0.9028 | 1005.28 | 1116 | 0.454
313.15 K, x2 = 0.9532 | 1024.79 | 1125 | 0.472
